Reference: patent US20220073554A1, “LINCOSAMIDE ANTIBIOTICS AND USES THEREOF” (President and Fellows of Harvard College, priority 2017, published 2022)
≈ marks a conversion by molar mass, not a printed value. Where two headings read alike, the source gives them in different places. Each block holds one molecule with its values, some of them ahead of it.

Assays:
Assay type in all cases: cell-based
[1] = system: S. aureus ATCC 29213; assay: MIC against S. aureus ATCC 29213
[2] = system: S. aureus MP-549 msr(a) USA 300; assay: MIC against S. aureus MP-549 msr(a) USA 300; conditions: Staphylococcus aureus, USA300, S. aureus MP-549 msr(a) USA 300
[3] = system: S. pneumoniae ATCC 49619; assay: MIC against S. pneumoniae ATCC 49619; conditions: Streptococcus pneumoniae, ATCC49619
[4] = system: S. pyogenes ATCC 19615; assay: MIC against S. pyogenes ATCC 19615; conditions: Streptococcus pyogenes, ATCC19615; S. pyogenes ATCC 19615; read-out: MIC
[5] = system: E. faecalis ATCC 29212; assay: MIC against E. faecalis ATCC 29212; conditions: Enterococcus faecalis, ATCC29212, read-out: MIC
[6] = system: K. pneumoniae ATCC 10031; assay: MIC against K. pneumoniae ATCC 10031; conditions: Klebsiella pneumoniae, ATCC10031; K. pneumoniae ATCC 10031; read-out: MIC
[7] = system: E. coli ATCC 25922; assay: MIC against E. coli ATCC 25922; conditions: Escherichia coli, ATCC25922
[8] = system: E. coli ATCC 15922; assay: MIC against E. coli ATCC 15922; conditions: Escherichia coli, ATCC15922; E. coli ATCC 15922; read-out: MIC
[9] = system: E. coli MP-9 ΔTolC; assay: MIC against E. coli MP-9 ΔTolC; conditions: Escherichia coli
[10] = system: S. aureus BAA 977 iErmA; assay: MIC against S. aureus BAA 977 iErmA; conditions: Staphylococcus aureus, BAA977
[11] = system: S. aureus MMX 3035 cErmA; assay: MIC against S. aureus MMX 3035 cErmA; conditions: Staphylococcus aureus, MMX3035CERMA; S. aureus MMX 3035 cErmA; read-out: MIC
[12] = system: S. pyogenes MMX 946 Macrolide-Resistant; assay: MIC against S. pyogenes MMX 946 Macrolide-Resistant; conditions: Streptococcus pyogenes; S. pyogenes MMX 946 Macrolide-Resistant (MacRes); read-out: MIC
[13] = system: E. faecalis MMX 847 Macrolide-Resistant; assay: MIC against E. faecalis MMX 847 Macrolide-Resistant; conditions: Enterococcus faecalis; E. faecalis MMX 847 Macrolide-Resistant (MacRes); read-out: MIC
[14] = system: H. influenzae ATCC 49247; assay: MIC against H. influenzae ATCC 49247; conditions: Haemophilus influenzae, ATCC49247
[15] = system: E. coli MP-74 LptD mutant; assay: MIC against E. coli MP-74 LptD mutant; conditions: Escherichia coli
[16] = Staphylococcus aureus, ATCC29213, S. aureus ATCC 29213, read-out: MIC
[17] = S. pneumoniae ATCC 49619, read-out: MIC
[18] = E. coli ATCC 25922, read-out: MIC
[19] = H. influenzae ATCC 49247, read-out: MIC
[20] = Staphylococcus aureus, ATCC29213

Structure (SMILES): COc1ccc(C2=CCO[C@@H]3[C@H](CN[C@@H]3C(=O)N[C@H]([C@H](C)Cl)[C@H]3OC(SC)[C@H](O)[C@H](O)C3O)C2)cc1 (stereo partly drawn) [FSA-511020]
MIC [1, 16]: 0.5 µg/mL (≈ 0.921 µM)
MIC [2]: 1 µg/mL (≈ 1.84 µM)
MIC [3, 17]: ≤ 0.06 µg/mL
MIC [4]: ≤ 0.06 µg/mL
MIC [5]: 4 µg/mL (≈ 7.37 µM)
MIC [6]: > 64 µg/mL
MIC [7, 18]: > 64 µg/mL

Structure (SMILES): CSC1O[C@H]([C@H](NC(=O)[C@H]2NC[C@@H]3CC(c4ccc(C#N)cc4)=CCO[C@H]32)[C@H](C)Cl)C(O)[C@@H](O)[C@H]1O (stereo partly drawn) [FSA-511033]
MIC [1, 16]: 0.5 µg/mL (≈ 0.929 µM)
MIC [2]: 1 µg/mL (≈ 1.86 µM)
MIC [3, 17]: ≤ 0.06 µg/mL
MIC [4]: ≤ 0.06 µg/mL
MIC [5]: 2 µg/mL (≈ 3.72 µM)
MIC [7, 18]: > 64 µg/mL

Structure (SMILES): CSC1O[C@H]([C@H](NC(=O)[C@H]2NC[C@@H]3CC(c4ccc(C)cc4)CCO[C@H]32)[C@H](C)Cl)C(O)[C@@H](O)[C@H]1O (stereo partly drawn) [FSA-511044]
MIC [1, 16]: 0.23 µg/mL (≈ 0.435 µM)
MIC [2]: 0.5 µg/mL (≈ 0.945 µM)
MIC [3]: 0.5 µg/mL (≈ 0.945 µM)
MIC [4]: ≤ 0.06 µg/mL
MIC [5]: 2 µg/mL (≈ 3.78 µM)
MIC [8]: > 64 µg/mL

Structure (SMILES): CSC1O[C@H]([C@H](NC(=O)[C@H]2NC[C@@H]3C[C@@H](c4ccc(C#N)cc4)CCO[C@H]32)[C@H](C)Cl)C(O)[C@@H](O)[C@H]1O (stereo partly drawn) [FSA-511046]
MIC ([1]; S. aureus ATCC 29213): 1 µg/mL (≈ 1.85 µM)
MIC [2]: 0.5 µg/mL (≈ 0.926 µM)
MIC [3, 17]: ≤ 0.06 µg/mL
MIC [4]: ≤ 0.06 µg/mL
MIC [5]: 1 µg/mL (≈ 1.85 µM)
MIC [8]: > 64 µg/mL
MIC [9]: 8 µg/mL (≈ 14.8 µM)

Structure (SMILES): CSC1O[C@H]([C@H](NC(=O)[C@H]2NC[C@@H]3C=C(c4ccc(F)cc4F)CCO[C@@H]23)[C@H](C)Cl)C(O)[C@@H](O)[C@H]1O (stereo partly drawn) [FSA-511072]
MIC [1, 16]: 1 µg/mL (≈ 1.82 µM)
MIC [10]: 1 µg/mL (≈ 1.82 µM)
MIC [2]: 1 µg/mL (≈ 1.82 µM)
MIC [11]: > 64 µg/mL
MIC [4]: 0.95 µg/mL (≈ 1.73 µM)
MIC [12]: > 64 µg/mL
MIC [5]: 4 µg/mL (≈ 7.29 µM)
MIC [13]: > 64 µg/mL
MIC [14, 19]: > 64 µg/mL
MIC [7, 18]: > 64 µg/mL

Structure (SMILES): CSC1O[C@H]([C@H](NC(=O)[C@H]2NC[C@@H]3C=C(c4cc(F)cc(F)c4)CCO[C@@H]23)[C@H](C)Cl)C(O)[C@@H](O)[C@H]1O (stereo partly drawn) [FSA-511074]
MIC [1, 16]: 2 µg/mL (≈ 3.64 µM)
MIC [10]: 2 µg/mL (≈ 3.64 µM)
MIC [2]: 1 µg/mL (≈ 1.82 µM)
MIC [11]: > 64 µg/mL
MIC [4]: 0.5 µg/mL (≈ 0.911 µM)
MIC [12]: > 64 µg/mL
MIC [5]: 4 µg/mL (≈ 7.29 µM)
MIC [13]: > 64 µg/mL
MIC [14, 19]: > 64 µg/mL
MIC [7, 18]: > 64 µg/mL

Structure (SMILES): CSC1O[C@H]([C@H](NC(=O)[C@H]2NC[C@@H]3C[C@@H](C4CCNCC4)CCO[C@H]32)[C@H](C)Cl)C(O)[C@@H](O)[C@H]1O (stereo partly drawn) [FSA-512011]
MIC [1, 16]: 8 µg/mL (≈ 15.3 µM)
MIC [2]: 8 µg/mL (≈ 15.3 µM)
MIC [3, 17]: 1 µg/mL (≈ 1.92 µM)
MIC [4]: 4 µg/mL (≈ 7.66 µM)
MIC [9]: > 256 µg/mL
MIC [15]: > 256 µg/mL
MIC [14]: > 256 µg/mL
MIC [7]: > 256 µg/mL

Structure (SMILES): CSC1O[C@H]([C@H](NC(=O)[C@H]2NC[C@@H]3C[C@@H](C4CCN(C)CC4)CCO[C@H]32)[C@H](C)Cl)C(O)[C@@H](O)[C@H]1O (stereo partly drawn) [FSA-512012]
MIC [1, 16]: 8 µg/mL (≈ 14.9 µM)
MIC [2]: 8 µg/mL (≈ 14.9 µM)
MIC [3, 17]: 1 µg/mL (≈ 1.87 µM)
MIC [4]: 4 µg/mL (≈ 7.46 µM)
MIC [9]: > 256 µg/mL
MIC [15]: > 256 µg/mL
MIC [14]: > 256 µg/mL
MIC [7]: > 256 µg/mL

MIC [1, 16]: 0.5 µg/mL (≈ 0.949 µM)
MIC [5]: 2 µg/mL (≈ 3.79 µM)
MIC [7, 18]: > 256 µg/mL
Structure (SMILES): CSC1O[C@H]([C@H](NC(=O)[C@H]2NC[C@@H]3C=C(c4ccc(C)cc4)CCO[C@@H]23)[C@H](C)Cl)C(O)[C@@H](O)[C@H]1O (stereo partly drawn) [FSA-512075]

Structure (SMILES): CSC1O[C@H]([C@H](NC(=O)[C@H]2NC[C@@H]3C[C@@H](c4ccc(C)cc4)CCO[C@H]32)[C@H](C)Cl)C(O)[C@@H](O)[C@H]1O (stereo partly drawn) [FSA-512079b]
MIC [1, 20]: 0.5 µg/mL (≈ 0.945 µM)
MIC [2]: 0.5 µg/mL (≈ 0.945 µM)
MIC [4]: ≤ 0.12 µg/mL
MIC [5]: 1 µg/mL (≈ 1.89 µM)
MIC [9]: 8 µg/mL (≈ 15.1 µM)
MIC [7, 18]: > 128 µg/mL

Structure (SMILES): CSC1O[C@H]([C@H](NC(=O)[C@H]2NC[C@@H]3C[C@H](c4ccc(C)cc4)CCO[C@H]32)[C@H](C)Cl)C(O)[C@@H](O)[C@H]1O (stereo partly drawn) [FSA-512079c]
MIC [1, 20]: 0.5 µg/mL (≈ 0.945 µM)
MIC [2]: 0.5 µg/mL (≈ 0.945 µM)
MIC [4]: ≤ 0.12 µg/mL
MIC [5]: 2 µg/mL (≈ 3.78 µM)
MIC [9]: 8 µg/mL (≈ 15.1 µM)
MIC [7, 18]: > 128 µg/mL

MIC [14, 19]: 37 µg/mL (≈ 67.9 µM)
Structure (SMILES): COc1ccc([C@@H]2CCO[C@@H]3[C@H](CN[C@@H]3C(=O)N[C@H]([C@H](C)Cl)[C@H]3OC(SC)[C@H](O)[C@H](O)C3O)C2)cc1 (stereo partly drawn) [FSA-512080c]
